{
  "source": "patent US20130267533A1",
  "about": "“5HT1A AGONISTS FOR TREATMENT OF HIGH CHOLESTEROL” (FABRE-KRAMER PHARMACEUTICALS, INC., priority 2012, published 2013)",
  "key": {"[1]": {"assay": "Plasma levels of 3-OH gepirone after gepirone treatment", "type": "in vivo", "details": "animals and humans treated with gepirone", "description": "3-OH gepirone has the same receptor binding, therefore, it is theorized that 3-OH-gepirone accounts for at least some of the effect noted with gepirone."}, "[2]": {"test_system": "post-synaptic receptors in the hippocampus", "details": "cited from earlier work"}, "[3]": {"test_system": "subjects with Major Depression", "assay": "Non-fasting total cholesterol at baseline and 8 weeks in 10 clinical studies of Gepirone-ER, meta-analysis", "type": "in vivo, human", "details": "for cholesterol levels, SSRI vs placebo: paroxetine one study n=143 p=0.045, fluoxetine three studies n=295 p=0.014, FIG. 4", "experimental": "In 10 clinical studies of the antidepressant effects of Gepirone-ER comprised of 2302 subjects with Major Depression safety measurements included non-fasting measurements of cholesterol at baseline and at 8 weeks (endpoint). A JMP-7 one way ANOVA of the data provided results for individual studies which were then analyzed by meta-analysis. […] So, analysis of the effect of gepirone on cholesterol levels in the 40-59 year range was conducted."}, "[4]": {"test_system": "MDD subjects over or under 200 mg/dL cholesterol", "assay": "Gepirone-ER antidepressant efficacy (HAMD-17) by cholesterol level, 8 double-blind MDD studies", "type": "in vivo, human", "details": "for HAMD responders percent: responder = 50% decrease in HAMD-17", "description": "The effects of cholesterol on gepirone-ER efficacy was investigated. […] As such, it was expected that the results for gepirone to be similar to that of Fava. […] Corresponding placebo values were generated as well.\nThe total population used was 10 times greater than the Fava Study addressed in the background section (Sonawalla S B, Papakostas G I, Petersen T J, Yeung A S, Smith M M, Sickinger A H, Gordon J, Israel J A, Tedlow J R, Lamon-Fava S, Fava M, Elevated cholesterol levels associated with nonresponse to fluoxetine treatment in major depressive disorder. Psychosomatics. 2002; 43:310-6). Using the cutoff value of 200 mg/dL, there were 1264 subjects above 200 mg/dL and 1225 subjects below. […] The respective average cholesterol levels were 234.3±29.7 and 169.9±21.2, similar to the Fava data.\nThe results there compared by t-test of odds ratio programs. The results for gepirone were examiner in 8 MDD studies. The low cholesterol group treated with gepirone-ER had 41.2% responders compared to the high cholesterol treated group 43.3% responders, a […] favoring the high cholesterol group (p=0.58)(Table 2). When the gepirone ER and placebo groups (Table 2) are compared, the high cholesterol gepirone treated group is 13.6% better than placebo (p=0.002), whereas the difference between the low cholesterol gepirone and placebo group is 0.5%, (p=0.602). However, the over 200 placebo group is 11% less than the under 200 placebo group (p=0.004)."}, "[5]": {"details": "pre-clinical tests; cited from earlier work"}, "subjects with anxiety": {"test_system": "subjects with anxiety", "assay": "Total cholesterol in random subset of 103 subjects from adatanserin study 790-210", "type": "in vivo, human", "description": "Adatanserin is another drug with similar properties. The studies done in adatanserin were largely done on anxiety, not depression. It was not known if the cholesterol levels in subjects with anxiety are elevated. (In the small sample studied below, the levels are not elevated). One paper in subjects with panic disorder claims that paroxetine treatment elevated plasma cholesterol (Kim E J, YU B-H, Increased Cholesterol Levels After Paroxetine Treatment in Patients with panic Disorder. J Clinical Psychopharmacol 2005; 25:597-599). However, to see if adatanserin might also have cholesterol lowering properties, the inventors of the present invention examined a random subset of 103 subjects from study 790-210."}, "depressed subjects": {"test_system": "depressed subjects", "details": "open label, cited from earlier work"}},
  "note": "Structures can show the parent of a compound that is named as a salt. Where two headings read alike, the source gives them in different places.",
  "data": [
    {"molecule": "CC1(C)CC(=O)N(CCCCN2CCN(c3ncccn3)CC2)C(=O)C1O", "note": "(centres unmarked) [3-OH gepirone]", "values": [
      {"measurement": "plasma levels of metabolite relative to gepirone", "setting": "[1]", "value": "greater than that of gepirone"},
      {"measurement": "type of agonism at post-synaptic receptors", "setting": "[2]", "value": "full agonism"}
    ]},
    {"molecule": "Fc1ccc([C@@H]2CCNC[C@H]2COc2ccc3c(c2)OCO3)cc1", "note": "[paroxetine]", "values": [
      {"measurement": "cholesterol levels, SSRI vs placebo", "setting": "[3]", "value": "placebo statistically better than paroxetine"}
    ]},
    {"molecule": "CC1(C)CC(=O)N(CCCCN2CCN(c3ncccn3)CC2)C(=O)C1", "note": "[Gepirone, 4,4-dimethyl-1-[4-[-(2-pyrimidinyl)-1-piperazinyl]-butyl]-2,6-piperidinedione hydrochloride]", "values": [
      {"measurement": "average drop in total cholesterol, meta-analysis", "setting": "[3]; 10 studies, p=0.016, FIG. 6", "value": 2.8, "unit": "mg/dL"},
      {"measurement": "number of studies with lower total cholesterol levels", "setting": "[3]; of 10 studies", "value": 7},
      {"measurement": "change in cholesterol levels", "setting": "[3]; patients in the 40-59 year range, FIG. 7", "value": -5, "unit": "mg/dL"},
      {"measurement": "HAMD change from baseline Δ means ± SD", "setting": "[4]; cholesterol over 200 mg/dL, n=344, p=0.001 vs placebo", "value": "−9.58 ± 7.2"},
      {"measurement": "HAMD responders percent", "setting": "[4]; cholesterol over 200 mg/dL, n=344, p=0.002 vs placebo", "value": 43.3, "unit": "%"},
      {"measurement": "HAMD change from baseline Δ means ± SD", "setting": "[4]; cholesterol under 200 mg/dL, n=354, p=0.656 vs placebo", "value": "−9.48 ± 7.4"},
      {"measurement": "HAMD responders percent", "setting": "[4]; cholesterol under 200 mg/dL, n=354, p=0.602 vs placebo", "value": 41.2, "unit": "%"},
      {"measurement": "difference in responders vs placebo", "setting": "[4]; high cholesterol group (over 200 mg/dL), p=0.002", "value": 13.6, "unit": "%"},
      {"measurement": "HAMD change from baseline, difference in means vs placebo", "setting": "[4]; high cholesterol group, p=0.001", "value": "−1.77", "unit": "points"},
      {"measurement": "difference in responders vs placebo", "setting": "[4]; low cholesterol group (under 200 mg/dL), p=0.602", "value": 0.5, "unit": "%"},
      {"measurement": "HAMD change from baseline, standard difference in means vs placebo", "setting": "[4]; low cholesterol group, p=0.656", "value": "−0.02", "unit": "points"},
      {"measurement": "HAMD change from baseline, over vs. under Δ(Δ means)", "setting": "[4]; over 200 vs under 200 mg/dL, p=0.856", "value": 0.10}
    ]},
    {"molecule": "c1cnc(N2CCNCC2)nc1", "note": "[1-PP, 1-(2-pyrimidinyl)piperazine]", "values": [
      {"measurement": "antidepressant-like characteristics", "setting": "[5]", "value": "did not exhibit antidepressant-like characteristics"}
    ]},
    {"molecule": "O=C(NCCN1CCN(c2ncccn2)CC1)C12CC3CC(CC(C3)C1)C2", "note": "[Adatanserin, N-[2-[4-(2-pyrimidinyl)-1-piperazinyl]ethyl]tricyclo[3.3.1.1^3,7]decane-1-carboxamide]", "values": [
      {"measurement": "Difference in cholesterol change between adatanserin and placebo", "setting": "subjects with anxiety; adatanserin n=76 vs placebo n=27, p=0.011", "value": 15.22, "unit": "mg/dL"},
      {"measurement": "Total Cholesterol after treatment, mean (SD)", "setting": "subjects with anxiety; n=76, after treatment", "value": "197.46 (44.1) mg/dL"},
      {"measurement": "Total Cholesterol at baseline, mean (SD)", "setting": "subjects with anxiety; n=76, at baseline", "value": "204.46 (46.4) mg/dL"},
      {"measurement": "Change in Total Cholesterol", "setting": "subjects with anxiety; n=76, baseline to after treatment", "value": -7.00, "unit": "mg/dL"}
    ]},
    {"molecule": "CNCCC(Oc1ccc(C(F)(F)F)cc1)c1ccccc1", "note": "(centres unmarked) [fluoxetine]", "values": [
      {"measurement": "cholesterol levels, SSRI vs placebo", "setting": "[3]", "value": "placebo statistically better then fluoxetine"},
      {"measurement": "response rate (50% decrease from baseline HAMD-17)", "setting": "depressed subjects; cholesterol above 200 mg/dL", "value": 46, "unit": "%"},
      {"measurement": "response rate (50% decrease from baseline HAMD-17)", "setting": "depressed subjects; cholesterol below 200 mg/dL", "value": 54, "unit": "%"}
    ]}
  ]
}
